In article doi:10.1101/2021.12.02.470934v1 (biorxiv, 2021):

Target: FGFR1 kinase (FGFR1 kinase enzyme system, Promega V9321) (Homo sapiens, UniProt P11362)
Experiment: ADP-Glo luminescence kinase assay
Assay type: biochemical

Sequence of FGFR1 kinase (FGFR1 kinase enzyme system, Promega V9321) (P11362 398-822 limits assumed): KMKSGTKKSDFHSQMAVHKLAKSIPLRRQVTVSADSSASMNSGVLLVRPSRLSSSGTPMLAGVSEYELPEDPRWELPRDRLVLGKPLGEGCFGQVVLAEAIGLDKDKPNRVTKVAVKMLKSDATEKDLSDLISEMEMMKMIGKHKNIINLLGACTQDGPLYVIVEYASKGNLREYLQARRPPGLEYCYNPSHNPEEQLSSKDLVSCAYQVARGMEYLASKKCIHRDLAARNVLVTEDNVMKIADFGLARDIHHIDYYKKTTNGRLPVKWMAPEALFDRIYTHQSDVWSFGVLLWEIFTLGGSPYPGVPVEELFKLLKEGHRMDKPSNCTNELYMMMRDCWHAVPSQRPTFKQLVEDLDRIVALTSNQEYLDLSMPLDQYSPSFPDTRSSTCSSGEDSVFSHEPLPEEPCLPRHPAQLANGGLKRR

IC50: 1050 nM
SMILES: CCN(CC)CCCC(C)Nc1c2ccc(Cl)cc2nc2ccc(OC)cc12 (stereo not shown) [Quinacrine]
